Here are results for one compound from publication PMC4876444, “Two-Photon Enzymatic Probes Visualizing Sub-cellular/Deep-brain Caspase Activities in Neurodegenerative Models” (Scientific Reports, 2016).

For data set [1], the system named is caspase-3-like activities in STS-induced BV2 and HeLa cells. Kind of data set: TPFM live-cell imaging of STS-induced apoptotic cells. Format: cell-based, mouse, human. The settings on record: BV2 (STS 2 μM) and HeLa (STS 1 μM) cells, 4 h STS, probe 24 μM 1 h; not in mock cells. As to the method:
Figure 3 Bioimaging of active caspases in live cells. TPFM (λex = 760 nm; λem = 480-550 nm for all AAN-probes) of STS-induced (a) BV2 cells (2 μM, 4 h) and (b) HeLa cells (1 μM, 4 h) using C3RA/C8RA (24 μM, 1 h). Panels 3/6: cells pretreated with Z-VAD(OMe)-FMK (50 μM, 1 h) before STS addition. Panels 1/4: normal cells (DMSO). (c) WB analysis of cleaved caspase-3/-8 from (a,b). (d) TPFM of normal/apoptotic Hela cells imaged by C3RA (24 μM, up) or Ac-DEVD-AMC (40 μM, down; λem = 420–500 nm). Panels 1/3: normal cells. Panels 2/4: STS-induced cells (1 μM, 4 h). Bottom inset: bright field. Top inset: one-photon images (λex = 405 nm). (e) Real-time imaging of caspase-3/-8-like activities in live BV2 cells using 24 μM of C3RA (top)/C8RA (bottom) upon STS (2 μM) stimulation over 2 h. (f) Graphical quantification of RFU extracted from (e). (g) WB analysis of time-dependent caspase-3/-8 cleavage from STS-induced (2 μM) BV2 lysates. (h) WB analysis of time-dependent caspase-3/-7/-8 activation by detection of cleaved caspase-3/-7/-8 from lysates of HeLa cells stimulated with STS (2 μM). (i) RFU from real-time imaging of caspase-3-like activity in live HeLa cells with C3RA/C3RM/C3RE (24 μM, added 1 h before STS) upon STS (2 μM) stimulation. (j) Representative images (t = 60 min) from (i). (k) IF of STS-stimulated (2 μM, 2 h) HeLa cells by anti-caspase-3 (p17) antibody (red) with 3D projections of z-stack images at 90° view and merged with MitoTracker (green, left) or ER tracker (cyan, right). (l) TPFM of caspase-1 activation in primary cortical neurons upon glucose deprivation (GD, 8 h) followed by 1-h incubation with C1RB (24 μM) or C1FS (12 μM; λem = 450–550 nm). Inset: bright field images. NC: neuron cells incubated in normal neurobasal medium. Scale bar = 10 μm in all images.
NIH/3T3, HeLa and BV2 cell lines used in our experiments were cultured in DMEM medium supplemented with 10% (for NIH/3T3 and HeLa) or 5% (for BV2) fetal bovine serum (FBS), with 100.0 mg/L streptomycin and 100 IU/mL penicillin. […]

Test in data set [2]: not given
The source holds these as a separate data set.

Regarding `CC(=O)N[C@@H](CC(=O)O)C(=O)N[C@@H](CCC(=O)O)C(=O)N[C@H](C(=O)N[C@@H](CC(=O)O)C(=O)Nc1ccc2cc(C(C)=O)ccc2c1)C(C)C` [C3RA, Ac-DEVD-AAN], the λem (emission maximum) was 448 nm. Also, the “intracellular two-photon fluorescence after STS treatment” value in data set [1] is on record as “strong intracellular fluorescence”. The same compound displayed a λex (absorption/excitation maximum) in data set [2] of 316 nm.
